Reference: the NIST ThermoML archive (doi:10.1016/j.fluid.2018.07.028)
± gives the expanded uncertainty stated by the source.

Assay: activity coefficient (dimensionless); of the first substance listed, at infinite dilution; xn = mol fraction of the nth substance listed
Conditions: 101.33 kPa, Liquid, Chromatography, x1 = 0

Row | Structure (SMILES) | activity coefficient (358.15 K) | activity coefficient (368.15 K) | activity coefficient (378.15 K) | activity coefficient (388.15 K) | activity coefficient (398.15 K) | activity coefficient (408.15 K)
1 | Cc1ccccc1C [1,2-dimethylbenzene] + CCCC[P+](CCCC)(CCCC)CCCC.O=S(=O)([N-]S(=O)(=O)C(F)(F)F)C(F)(F)F | 1.39 ± 0.09 | 1.43 ± 0.09 | 1.48 ± 0.1 | 1.52 ± 0.1 | 1.57 ± 0.1 | 1.61 ± 0.11
2 | Cc1cccc(C)c1 [1,3-dimethylbenzene] + CCCC[P+](CCCC)(CCCC)CCCC.O=S(=O)([N-]S(=O)(=O)C(F)(F)F)C(F)(F)F | 1.53 ± 0.1 | 1.58 ± 0.1 | 1.63 ± 0.11 | 1.68 ± 0.11 | 1.72 ± 0.12 | 1.77 ± 0.12
3 | Cc1ccc(C)cc1 [1,4-dimethylbenzene] + CCCC[P+](CCCC)(CCCC)CCCC.O=S(=O)([N-]S(=O)(=O)C(F)(F)F)C(F)(F)F | 1.55 ± 0.1 | 1.6 ± 0.11 | 1.64 ± 0.11 | 1.69 ± 0.11 | 1.74 ± 0.12 | 1.79 ± 0.12
4 | C1COCCO1 [1,4-dioxane] + CCCC[P+](CCCC)(CCCC)CCCC.O=S(=O)([N-]S(=O)(=O)C(F)(F)F)C(F)(F)F | 0.795 ± 0.052 | 0.825 ± 0.053 | 0.853 ± 0.055 | 0.884 ± 0.056 | 0.911 ± 0.058 | 0.941 ± 0.059
5 | C=CCCCCCCCC [1-decene] + CCCC[P+](CCCC)(CCCC)CCCC.O=S(=O)([N-]S(=O)(=O)C(F)(F)F)C(F)(F)F | 7.54 ± 0.51 | 7.48 ± 0.51 | 7.41 ± 0.51 | 7.36 ± 0.5 | 7.3 ± 0.5 | 7.25 ± 0.49
6 | C=CCCCCC [1-heptene] + CCCC[P+](CCCC)(CCCC)CCCC.O=S(=O)([N-]S(=O)(=O)C(F)(F)F)C(F)(F)F | 3.96 ± 0.27 | 4 ± 0.27 | 4.05 ± 0.28 | 4.09 ± 0.28 | 4.13 ± 0.28 | 4.17 ± 0.28
7 | C#CCCCCC [1-heptyne] + CCCC[P+](CCCC)(CCCC)CCCC.O=S(=O)([N-]S(=O)(=O)C(F)(F)F)C(F)(F)F | 2.28 ± 0.16 | 2.35 ± 0.16 | 2.42 ± 0.16 | 2.48 ± 0.17 | 2.55 ± 0.17 | 2.62 ± 0.18
8 | C#CCCCC [1-hexyne] + CCCC[P+](CCCC)(CCCC)CCCC.O=S(=O)([N-]S(=O)(=O)C(F)(F)F)C(F)(F)F | 1.88 ± 0.13 | 1.94 ± 0.13 | 2 ± 0.14 | 2.06 ± 0.14 | 2.11 ± 0.14 | 2.17 ± 0.15
9 | CCC[N+](=O)[O-] [1-nitropropane] + CCCC[P+](CCCC)(CCCC)CCCC.O=S(=O)([N-]S(=O)(=O)C(F)(F)F)C(F)(F)F | 0.693 ± 0.047 | 0.708 ± 0.047 | 0.724 ± 0.048 | 0.739 ± 0.049 | 0.754 ± 0.05 | 0.768 ± 0.05
10 | C#CCCCCCC [1-octyne] + CCCC[P+](CCCC)(CCCC)CCCC.O=S(=O)([N-]S(=O)(=O)C(F)(F)F)C(F)(F)F | 2.79 ± 0.19 | 2.87 ± 0.2 | 2.93 ± 0.2 | 3 ± 0.2 | 3.07 ± 0.21 | 3.13 ± 0.21
11 | C=CCCC [1-pentene] + CCCC[P+](CCCC)(CCCC)CCCC.O=S(=O)([N-]S(=O)(=O)C(F)(F)F)C(F)(F)F | 2.61 ± 0.18 | 2.66 ± 0.18 | 2.7 ± 0.18 | 2.74 ± 0.19 | 2.78 ± 0.19 | 2.82 ± 0.19
12 | C#CCCC [1-pentyne] + CCCC[P+](CCCC)(CCCC)CCCC.O=S(=O)([N-]S(=O)(=O)C(F)(F)F)C(F)(F)F | 1.52 ± 0.1 | 1.58 ± 0.1 | 1.64 ± 0.11 | 1.7 ± 0.11 | 1.76 ± 0.12 | 1.82 ± 0.12
13 | CC(C)CC(C)(C)C [2,2,4-trimethylpentane] + CCCC[P+](CCCC)(CCCC)CCCC.O=S(=O)([N-]S(=O)(=O)C(F)(F)F)C(F)(F)F | 5.43 ± 0.37 | 5.42 ± 0.37 | 5.41 ± 0.37 | 5.4 ± 0.37 | 5.39 ± 0.37 | 5.39 ± 0.37
14 | CCC(C)(C)C [2,2-dimethylbutane] + CCCC[P+](CCCC)(CCCC)CCCC.O=S(=O)([N-]S(=O)(=O)C(F)(F)F)C(F)(F)F | 3.93 ± 0.27 | 3.98 ± 0.27 | 4.01 ± 0.27 | 4.05 ± 0.28 | 4.08 ± 0.28 | 4.12 ± 0.28
15 | CCOC(C)(C)C [2-ethoxy-2-methylpropane] + CCCC[P+](CCCC)(CCCC)CCCC.O=S(=O)([N-]S(=O)(=O)C(F)(F)F)C(F)(F)F | 2.72 ± 0.19 | 2.78 ± 0.19 | 2.84 ± 0.19 | 2.91 ± 0.2 | 2.96 ± 0.2 | 3.02 ± 0.21
16 | CCC(C)(C)OC [2-methoxy-2-methylbutane] + CCCC[P+](CCCC)(CCCC)CCCC.O=S(=O)([N-]S(=O)(=O)C(F)(F)F)C(F)(F)F | 2 ± 0.14 | 2.07 ± 0.14 | 2.13 ± 0.14 | 2.2 ± 0.15 | 2.26 ± 0.15 | 2.32 ± 0.16
17 | COC(C)(C)C [2-methoxy-2-methylpropane] + CCCC[P+](CCCC)(CCCC)CCCC.O=S(=O)([N-]S(=O)(=O)C(F)(F)F)C(F)(F)F | 1.66 ± 0.11 | 1.73 ± 0.12 | 1.8 ± 0.12 | 1.87 ± 0.13 | 1.94 ± 0.13 | 2.01 ± 0.14
18 | CC(C)CO [2-methyl-1-propanol] + CCCC[P+](CCCC)(CCCC)CCCC.O=S(=O)([N-]S(=O)(=O)C(F)(F)F)C(F)(F)F | 1.57 ± 0.1 | 1.52 ± 0.1 | 1.46 ± 0.1 | 1.41 ± 0.09 | 1.37 ± 0.09 | 1.33 ± 0.09
19 | CC(C)(C)O [2-methylpropan-2-ol] + CCCC[P+](CCCC)(CCCC)CCCC.O=S(=O)([N-]S(=O)(=O)C(F)(F)F)C(F)(F)F | 1.41 ± 0.09 | 1.4 ± 0.09 | 1.38 ± 0.09 | 1.37 ± 0.09 | 1.36 ± 0.09 | 1.35 ± 0.09
20 | CCC(C)CC [3-methylpentane] + CCCC[P+](CCCC)(CCCC)CCCC.O=S(=O)([N-]S(=O)(=O)C(F)(F)F)C(F)(F)F | 4.02 ± 0.27 | 4.04 ± 0.28 | 4.06 ± 0.28 | 4.09 ± 0.28 | 4.11 ± 0.28 | 4.13 ± 0.28
21 | C=C(C)c1ccccc1 [(1-methylethenyl)benzene] + CCCC[P+](CCCC)(CCCC)CCCC.O=S(=O)([N-]S(=O)(=O)C(F)(F)F)C(F)(F)F | 1.4 ± 0.09 | 1.46 ± 0.1 | 1.52 ± 0.1 | 1.58 ± 0.1 | 1.64 ± 0.11 | 1.7 ± 0.11
22 | CC(C)=O [acetone] + CCCC[P+](CCCC)(CCCC)CCCC.O=S(=O)([N-]S(=O)(=O)C(F)(F)F)C(F)(F)F | 0.503 ± 0.038 | 0.524 ± 0.039 | 0.545 ± 0.04 | 0.567 ± 0.041 | 0.587 ± 0.042 | 0.607 ± 0.042
23 | CC#N [acetonitrile] + CCCC[P+](CCCC)(CCCC)CCCC.O=S(=O)([N-]S(=O)(=O)C(F)(F)F)C(F)(F)F | 0.602 ± 0.042 | 0.613 ± 0.043 | 0.625 ± 0.043 | 0.635 ± 0.044 | 0.645 ± 0.044 | 0.655 ± 0.045
24 | c1ccccc1 [benzene] + CCCC[P+](CCCC)(CCCC)CCCC.O=S(=O)([N-]S(=O)(=O)C(F)(F)F)C(F)(F)F | 0.836 ± 0.054 | 0.869 ± 0.056 | 0.901 ± 0.057 | 0.933 ± 0.059 | 0.963 ± 0.061 | 0.994 ± 0.062
25 | CCCCO [butan-1-ol] + CCCC[P+](CCCC)(CCCC)CCCC.O=S(=O)([N-]S(=O)(=O)C(F)(F)F)C(F)(F)F | 1.67 ± 0.11 | 1.61 ± 0.11 | 1.56 ± 0.1 | 1.51 ± 0.1 | 1.46 ± 0.1 | 1.42 ± 0.09
26 | CCC(C)O (stereo not given) [butan-2-ol] + CCCC[P+](CCCC)(CCCC)CCCC.O=S(=O)([N-]S(=O)(=O)C(F)(F)F)C(F)(F)F | 1.53 ± 0.1 | 1.49 ± 0.1 | 1.46 ± 0.1 | 1.43 ± 0.09 | 1.4 ± 0.09 | 1.37 ± 0.09
27 | CCCC=O [butanal] + CCCC[P+](CCCC)(CCCC)CCCC.O=S(=O)([N-]S(=O)(=O)C(F)(F)F)C(F)(F)F | 0.669 ± 0.045 | 0.699 ± 0.047 | 0.729 ± 0.048 | 0.758 ± 0.05 | 0.787 ± 0.051 | 0.817 ± 0.053
28 | C1CCCCCC1 [cycloheptane] + CCCC[P+](CCCC)(CCCC)CCCC.O=S(=O)([N-]S(=O)(=O)C(F)(F)F)C(F)(F)F | 3.42 ± 0.23 | 3.41 ± 0.23 | 3.4 ± 0.23 | 3.39 ± 0.23 | 3.38 ± 0.23 | 3.37 ± 0.23
29 | C1CCCCC1 [cyclohexane] + CCCC[P+](CCCC)(CCCC)CCCC.O=S(=O)([N-]S(=O)(=O)C(F)(F)F)C(F)(F)F | 2.85 ± 0.19 | 2.85 ± 0.19 | 2.85 ± 0.19 | 2.86 ± 0.19 | 2.86 ± 0.19 | 2.86 ± 0.19
30 | C1=CCCCC1 [cyclohexene] + CCCC[P+](CCCC)(CCCC)CCCC.O=S(=O)([N-]S(=O)(=O)C(F)(F)F)C(F)(F)F | 2.24 ± 0.15 | 2.27 ± 0.15 | 2.29 ± 0.16 | 2.32 ± 0.16 | 2.34 ± 0.16 | 2.37 ± 0.16
